Assay results as given in patent US20110200535A1, “DAA-PYRIDINE AS PERIPHERAL BENZODIAZEPINE RECEPTOR LIGAND FOR DIAGNOSTIC IMAGING AND PHARMACEUTICAL TREATMENT” (BAYER SCHERING PHARMA AKTIENGESELLSCHAFT, priority 2008, published 2011).
Several values for one entry are separate records, joined by “and”; a condition that tells them apart may be missing. Equal entries are not always repeated.

Assays:
Type in all cases: in vivo
[1] = Excretion of [^18F]-radioactivity via urine and faeces in normal mice (gamma counter); conditions: i.v., decay corrected
Experimental: (§1) The biodistribution of [^18F]-2d and [^18F]-5d was investigated in healthy male NMRI mice (28.3-35.6 g body weight, n=3 animals per time point) at 2, 5, 30, 60 and 180/240 min after intravenous injection of 0.264 MBq [^18F]-2d and 0.268 MBq [^18F]-5d per animal, respectively. Until the indicated time points urine and faeces were quantitatively collected. At the respective time points the mice were sacrificed and the tissues were removed. [^18F]-radioactivity was analyzed in a gamma counter (Tab. 1.1, 2.1 and 1.2, 2.2).

[2] = molecular target: T1, peripheral benzodiazepine receptor (PBR) (Rattus norvegicus, UniProt P16257); assay: Ex vivo autoradiography of brain sections, rat kainic acid induced epilepsy model
T1 construct: from tissue; host or cells: rat brain (hippocampus, cerebellum) after i.v. tracer injection
Experimental: Using a rat kainic acid induced epilepsy model and respective sham controls the accumulation of [^18F]-2d and [^18F]-5d was visualized ex vivo. In brief, epilepsy was induced in rats by injecting kainic acid i.p. At day eight after the start of the kainic acid treatment [^18F]-2d and [^18F]-5d were injected into the tail vein of the rats and their sham treated controls (PBS instead of kainic acid) at a dose of 25.8-35.8 MBq (approximately 1.0 μg) per rat. Thirty minutes after intravenous injection the rats were sacrificed, the brains were taken out, snap frozen and sliced transversally in a cryostat. The slices were exposed to PhosphoImager plates over night. The resulting autoradiographic signals were analyzed qualitatively and quantitatively (FIG. 2.1 A and C, 2.2 A and C). […] To determine the specificity of the [^18F]-2d and [^18F]-5d binding, kainic acid treated rats were co-injected with [^19F]-2e and [^19F]-5e, respectively.
The autoradiographic signals were quantified. The signal intensity in a hippocampal region of interest (ROI) was measured and compared to a ROI in the cerebellum, that was used as reference region.

[3] = Biodistribution of [^18F]-radioactivity in healthy male NMRI mice after intravenous injection (gamma counter); conditions: for [^18F]-radioactivity in adrenals / [^18F]-radioactivity in blood / [^18F]-radioactivity in bone / [^18F]-radioactivity in brain (brain uptake) / [^18F]-radioactivity in fat / [^18F]-radioactivity in heart / [^18F]-radioactivity in intestine / [^18F]-radioactivity in kidney / [^18F]-radioactivity in liver / [^18F]-radioactivity in lung / [^18F]-radioactivity in muscle / [^18F]-radioactivity in pancreas / [^18F]-radioactivity in skin / [^18F]-radioactivity in spleen / [^18F]-radioactivity in stomach / [^18F]-radioactivity in testes / [^18F]-radioactivity in thyroid: normal mice, i.v., decay corrected
Experimental: as §1

## COc1ccc(Oc2ncccc2N(Cc2cc(OC)ccc2OCC[18F])C(C)=O)cc1 [[^18F]-2d, N-[2-(2-[^18F]fluoroethoxy)-5-methoxybenzyl]-N-[2-(4-methoxyphenoxy)pyridin-3-yl]acetamide]
[1]; 2 min
  Excretion of [^18F]-radioactivity via faeces: 0.00 ± 0.00 % injected dose
  Excretion of [^18F]-radioactivity via urine: 0.02 ± 0.01 % injected dose
[1]; 5 min
  Excretion of [^18F]-radioactivity via faeces: 0.02 ± 0.03 % injected dose
  Excretion of [^18F]-radioactivity via urine: 0.02 ± 0.01 % injected dose
[1]; 30 min
  Excretion of [^18F]-radioactivity via faeces: 0.01 ± 0.00 % injected dose
  Excretion of [^18F]-radioactivity via urine: 1.72 ± 0.08 % injected dose
[1]; 60 min
  Excretion of [^18F]-radioactivity via faeces: 0.03 ± 0.03 % injected dose
  Excretion of [^18F]-radioactivity via urine: 4.21 ± 0.39 % injected dose
[1]; 180 min
  Excretion of [^18F]-radioactivity via faeces: 0.59±0.61 % injected dose
  Excretion of [^18F]-radioactivity via urine: 13.09±1.33 % injected dose
[2]; kainic acid treated rats, co-injected with [^19F]-2e and [^19F]-5e, respectively
  Specificity of binding: autoradiographic signal on co-injection of the corresponding [^19F] compound: significantly reduced autoradiographic signal
[2]; rat kainic acid model, 30 min ex vivo autoradiography
  Hipp/Cereb ratio (signal-to-background ratio, hippocampus/cerebellum): 5.6 ± 1.8
[3]; mice, 30 min p.i.
  Initial elimination of the radioactivity from the brain: ca. 72%
[3]; mice, brain, 2 min to 30 min
  Elimination from mouse brain, 2 min/30 min ratio of brain uptake (% ID/g): 3.7
[3]; 2 min
  [^18F]-radioactivity in adrenals: 7.37 ± 2.53 % injected dose/g
  [^18F]-radioactivity in blood: 2.35 ± 0.15 % injected dose/g
  [^18F]-radioactivity in bone: 0.87 ± 0.11 % injected dose/g
  [^18F]-radioactivity in brain (brain uptake): 1.37±0.04 % injected dose/g
  [^18F]-radioactivity in fat: 0.41 ± 0.49 % injected dose/g
  [^18F]-radioactivity in heart: 16.53 ± 0.48 % injected dose/g
  [^18F]-radioactivity in intestine: 0.82 ± 0.04 % injected dose/g
  [^18F]-radioactivity in kidney: 5.92 ± 1.40 % injected dose/g
  [^18F]-radioactivity in liver: 1.20 ± 0.28 % injected dose/g
  [^18F]-radioactivity in lung: 61.50 ± 10.42 % injected dose/g
  [^18F]-radioactivity in muscle: 1.23 ± 0.47 % injected dose/g
  [^18F]-radioactivity in pancreas: 1.91 ± 0.33 % injected dose/g
  [^18F]-radioactivity in skin: 0.51 ± 0.14 % injected dose/g
  [^18F]-radioactivity in spleen: 1.50 ± 0.20 % injected dose/g
  [^18F]-radioactivity in stomach: 2.15 ± 1.25 % injected dose/g
  [^18F]-radioactivity in testes: 0.48 ± 0.10 % injected dose/g
  [^18F]-radioactivity in thyroid: 2.15 ± 1.49 % injected dose/g
[3]; 5 min
  [^18F]-radioactivity in adrenals: 10.39 ± 3.44 % injected dose/g
  [^18F]-radioactivity in blood: 1.44 ± 0.07 % injected dose/g
  [^18F]-radioactivity in bone: 1.30 ± 0.02 % injected dose/g
  [^18F]-radioactivity in brain (brain uptake): 0.95 ± 0.07 % injected dose/g
  [^18F]-radioactivity in fat: 0.25 ± 0.06 % injected dose/g
  [^18F]-radioactivity in heart: 17.09 ± 0.64 % injected dose/g
  [^18F]-radioactivity in intestine: 1.36 ± 0.33 % injected dose/g
  [^18F]-radioactivity in kidney: 7.45 ± 1.00 % injected dose/g
  [^18F]-radioactivity in liver: 1.41 ± 0.26 % injected dose/g
  [^18F]-radioactivity in lung: 34.75 ± 6.56 % injected dose/g
  [^18F]-radioactivity in muscle: 1.58 ± 0.52 % injected dose/g
  [^18F]-radioactivity in pancreas: 2.23 ± 0.60 % injected dose/g
  [^18F]-radioactivity in skin: 0.60 ± 0.11 % injected dose/g
  [^18F]-radioactivity in spleen: 4.78 ± 0.73 % injected dose/g
  [^18F]-radioactivity in stomach: 1.89 ± 1.77 % injected dose/g
  [^18F]-radioactivity in testes: 0.50 ± 0.15 % injected dose/g
  [^18F]-radioactivity in thyroid: 2.65 ± 0.58 % injected dose/g
[3]; 30 min
  [^18F]-radioactivity in adrenals: 15.51 ± 0.48 % injected dose/g
  [^18F]-radioactivity in blood: 0.70 ± 0.14 % injected dose/g
  [^18F]-radioactivity in bone: 1.67 ± 0.32 % injected dose/g
  [^18F]-radioactivity in brain (brain uptake): 0.37±0.04 % injected dose/g
  [^18F]-radioactivity in fat: 0.46 ± 0.10 % injected dose/g
  [^18F]-radioactivity in heart: 7.94 ± 1.52 % injected dose/g
  [^18F]-radioactivity in intestine: 2.15 ± 0.62 % injected dose/g
  [^18F]-radioactivity in kidney: 10.99 ± 1.08 % injected dose/g
  [^18F]-radioactivity in liver: 1.61 ± 0.43 % injected dose/g
  [^18F]-radioactivity in lung: 10.66 ± 0.71 % injected dose/g
  [^18F]-radioactivity in muscle: 1.80 ± 0.17 % injected dose/g
  [^18F]-radioactivity in pancreas: 2.85 ± 0.03 % injected dose/g
  [^18F]-radioactivity in skin: 0.98 ± 0.06 % injected dose/g
  [^18F]-radioactivity in spleen: 6.98 ± 0.82 % injected dose/g
  [^18F]-radioactivity in stomach: 3.49 ± 0.45 % injected dose/g
  [^18F]-radioactivity in testes: 0.79 ± 0.11 % injected dose/g
  [^18F]-radioactivity in thyroid: 3.95 ± 0.81 % injected dose/g
[3]; 60 min
  [^18F]-radioactivity in adrenals: 23.01 ± 8.20 % injected dose/g
  [^18F]-radioactivity in blood: 0.60 ± 0.09 % injected dose/g
  [^18F]-radioactivity in bone: 1.75 ± 0.09 % injected dose/g
  [^18F]-radioactivity in brain (brain uptake): 0.34 ± 0.02 % injected dose/g
  [^18F]-radioactivity in fat: 0.49 ± 0.06 % injected dose/g
  [^18F]-radioactivity in heart: 5.22 ± 0.61 % injected dose/g
  [^18F]-radioactivity in intestine: 2.33 ± 0.34 % injected dose/g
  [^18F]-radioactivity in kidney: 11.04 ± 0.48 % injected dose/g
  [^18F]-radioactivity in liver: 1.56 ± 0.22 % injected dose/g
  [^18F]-radioactivity in lung: 6.31 ± 0.34 % injected dose/g
  [^18F]-radioactivity in muscle: 2.34 ± 0.23 % injected dose/g
  [^18F]-radioactivity in pancreas: 2.56 ± 0.26 % injected dose/g
  [^18F]-radioactivity in skin: 1.14 ± 0.06 % injected dose/g
  [^18F]-radioactivity in spleen: 6.09 ± 0.50 % injected dose/g
  [^18F]-radioactivity in stomach: 4.37 ± 0.51 % injected dose/g
  [^18F]-radioactivity in testes: 0.84 ± 0.09 % injected dose/g
  [^18F]-radioactivity in thyroid: 3.88 ± 0.10 % injected dose/g
[3]; 180 min
  [^18F]-radioactivity in adrenals: 13.74 ± 7.36 % injected dose/g
  [^18F]-radioactivity in blood: 0.66 ± 0.09 % injected dose/g
  [^18F]-radioactivity in bone: 2.3 % injected dose/g and 2.25 ± 0.20 % injected dose/g
  [^18F]-radioactivity in brain (brain uptake): 0.35 ± 0.02 % injected dose/g
  [^18F]-radioactivity in fat: 2.02 ± 1.06 % injected dose/g
  [^18F]-radioactivity in heart: 2.78 ± 0.18 % injected dose/g
  [^18F]-radioactivity in intestine: 4.28 ± 0.94 % injected dose/g
  [^18F]-radioactivity in kidney: 10.63 ± 1.41 % injected dose/g
  [^18F]-radioactivity in liver: 1.29 ± 0.20 % injected dose/g
  [^18F]-radioactivity in lung: 4.57 ± 1.44 % injected dose/g
  [^18F]-radioactivity in muscle: 1.84 ± 0.29 % injected dose/g
  [^18F]-radioactivity in pancreas: 1.76 ± 0.40 % injected dose/g
  [^18F]-radioactivity in skin: 1.60 ± 0.19 % injected dose/g
  [^18F]-radioactivity in spleen: 4.07 ± 0.51 % injected dose/g
  [^18F]-radioactivity in stomach: 4.37 ± 0.68 % injected dose/g
  [^18F]-radioactivity in testes: 1.14 ± 0.11 % injected dose/g
  [^18F]-radioactivity in thyroid: 3.91 ± 0.75 % injected dose/g
